# PubChem BioAssay (NCI)
#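 At the GI50, growth is halved. TGI marks complete inhibition of growth.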
# Legend:
# Assay in all cases: DTP human tumour cell line panel, 384-well format
# 786-0 renal = test system: 786-0 renal
# A498 renal = test system: A498 renal
# A549 NSCLC = test system: A549 NSCLC
# ACHN renal = test system: ACHN renal
# BT-549 breast = test system: BT-549 breast
# CAKI-1 renal = test system: CAKI-1 renal
# COLO 205 colon = test system: COLO 205 colon
# DU-145 prostate = test system: DU-145 prostate
# EKVX NSCLC = test system: EKVX NSCLC
# HCC-2998 colon = test system: HCC-2998 colon
# HCT-116 colon = test system: HCT-116 colon
# HCT-15 colon = test system: HCT-15 colon
# HOP-62 NSCLC = test system: HOP-62 NSCLC
# HOP-92 NSCLC = test system: HOP-92 NSCLC
# HS 578T breast = test system: HS 578T breast
# HT29 colon = test system: HT29 colon
# IGROV1 ovarian = test system: IGROV1 ovarian
# KM12 colon = test system: KM12 colon
# LOX IMVI melanoma = test system: LOX IMVI melanoma
# MALME-3M melanoma = test system: MALME-3M melanoma
# MCF7 breast = test system: MCF7 breast
# MDA-MB-231 breast = test system: MDA-MB-231 breast
# MDA-MB-435 melanoma = test system: MDA-MB-435 melanoma
# MDA-MB-468 breast = test system: MDA-MB-468 breast
# MOLT-4 leukemia = test system: MOLT-4 leukemia
# NCI-H226 lung = test system: NCI-H226 lung
# NCI-H23 lung = test system: NCI-H23 lung
# NCI-H322M lung = test system: NCI-H322M lung
# NCI-H460 NSCLC = test system: NCI-H460 NSCLC
# NCI-H522 lung = test system: NCI-H522 lung
# NCI/ADR-RES ovarian = test system: NCI/ADR-RES ovarian
# OVCAR-4 ovarian = test system: OVCAR-4 ovarian
# OVCAR-5 ovarian = test system: OVCAR-5 ovarian
# OVCAR-8 ovarian = test system: OVCAR-8 ovarian
# PC-3 prostate = test system: PC-3 prostate
# RPMI-8226 leukemia = test system: RPMI-8226 leukemia
# RXF 393 renal = test system: RXF 393 renal
# SF-295 CNS = test system: SF-295 CNS
# SF-539 CNS = test system: SF-539 CNS
# SK-MEL-28 melanoma = test system: SK-MEL-28 melanoma
# SK-OV-3 ovarian = test system: SK-OV-3 ovarian
# SN12C renal = test system: SN12C renal
# SNB-19 CNS = test system: SNB-19 CNS
# SR leukemia = test system: SR leukemia
# SW-620 colon = test system: SW-620 colon
# T-47D breast = test system: T-47D breast
# TK-10 renal = test system: TK-10 renal
# U251 glioblastoma = test system: U251 glioblastoma
# UACC-257 melanoma = test system: UACC-257 melanoma
# UO-31 renal = test system: UO-31 renal
# CCRF-CEM leukemia = test system: CCRF-CEM leukemia
# HL-60(TB) leukemia = test system: HL-60(TB) leukemia
# K-562 leukemia = test system: K-562 leukemia
# OVCAR-3 ovarian = test system: OVCAR-3 ovarian
# SF-268 CNS = test system: SF-268 CNS
# SK-MEL-5 melanoma = test system: SK-MEL-5 melanoma
# UACC-62 melanoma = test system: UACC-62 melanoma
structure (smiles),measurement,setting,value
CNC(=O)c1ccccc1Sc1ccc2c(/C=C/c3ccccn3)n[nH]c2c1,GI50,786-0 renal,42.1 µM
same,TGI,786-0 renal,> 100 µM
same,GI50,A498 renal,35.4 µM
same,TGI,A498 renal,> 100 µM
same,GI50,A549 NSCLC,7.86 µM
same,TGI,A549 NSCLC,> 100 µM
same,GI50,ACHN renal,13.8 µM
same,TGI,ACHN renal,> 100 µM
same,GI50,BT-549 breast,1.22 µM
same,TGI,BT-549 breast,6.94 µM
same,GI50,CAKI-1 renal,22 µM
same,TGI,CAKI-1 renal,> 100 µM
same,GI50,COLO 205 colon,2.52 µM
same,TGI,COLO 205 colon,> 100 µM
same,GI50,DU-145 prostate,30.1 µM
same,TGI,DU-145 prostate,> 100 µM
same,GI50,EKVX NSCLC,29.9 µM
same,TGI,EKVX NSCLC,> 100 µM
same,GI50,HCC-2998 colon,> 100 µM
same,TGI,HCC-2998 colon,> 100 µM
same,GI50,HCT-116 colon,4.39 µM
same,TGI,HCT-116 colon,> 100 µM
same,GI50,HCT-15 colon,4.68 µM
same,TGI,HCT-15 colon,> 100 µM
same,GI50,HOP-62 NSCLC,4.4 µM
same,TGI,HOP-62 NSCLC,> 100 µM
same,GI50,HOP-92 NSCLC,20.3 µM
same,TGI,HOP-92 NSCLC,> 100 µM
same,GI50,HS 578T breast,2.17 µM
same,TGI,HS 578T breast,35.7 µM
same,GI50,HT29 colon,46.5 µM
same,TGI,HT29 colon,> 100 µM
same,GI50,IGROV1 ovarian,36.1 µM
same,TGI,IGROV1 ovarian,> 100 µM
same,GI50,KM12 colon,1.11 µM
same,TGI,KM12 colon,> 100 µM
same,GI50,LOX IMVI melanoma,5.04 µM
same,TGI,LOX IMVI melanoma,41.7 µM
same,GI50,MALME-3M melanoma,13.6 µM
same,TGI,MALME-3M melanoma,85.9 µM
same,GI50,MCF7 breast,16.2 µM
same,TGI,MCF7 breast,> 100 µM
same,GI50,MDA-MB-231 breast,21.7 µM
same,TGI,MDA-MB-231 breast,> 100 µM
same,GI50,MDA-MB-435 melanoma,> 100 µM
same,TGI,MDA-MB-435 melanoma,> 100 µM
same,GI50,MDA-MB-468 breast,1.92 µM
same,TGI,MDA-MB-468 breast,5.88 µM
same,GI50,MOLT-4 leukemia,0.175 µM
same,TGI,MOLT-4 leukemia,0.328 µM
same,GI50,NCI-H226 lung,1.06 µM
same,TGI,NCI-H226 lung,7.68 µM
same,GI50,NCI-H23 lung,15.5 µM
same,TGI,NCI-H23 lung,> 100 µM
same,GI50,NCI-H322M lung,20.7 µM
same,TGI,NCI-H322M lung,73.7 µM
same,GI50,NCI-H460 NSCLC,2.59 µM
same,TGI,NCI-H460 NSCLC,45 µM
same,GI50,NCI-H522 lung,1.35 µM
same,TGI,NCI-H522 lung,13.8 µM
same,GI50,NCI/ADR-RES ovarian,5.09 µM
same,TGI,NCI/ADR-RES ovarian,18.4 µM
same,GI50,OVCAR-4 ovarian,19.3 µM
same,TGI,OVCAR-4 ovarian,> 100 µM
same,GI50,OVCAR-5 ovarian,> 100 µM
same,TGI,OVCAR-5 ovarian,> 100 µM
same,GI50,OVCAR-8 ovarian,14.3 µM
same,TGI,OVCAR-8 ovarian,42.5 µM
same,GI50,PC-3 prostate,20.2 µM
same,TGI,PC-3 prostate,> 100 µM
same,GI50,RPMI-8226 leukemia,3.77 µM
same,TGI,RPMI-8226 leukemia,13.9 µM
same,GI50,RXF 393 renal,4.61 µM
same,TGI,RXF 393 renal,31.1 µM
same,GI50,SF-295 CNS,3.59 µM
same,TGI,SF-295 CNS,69 µM
same,GI50,SF-539 CNS,1.01 µM
same,TGI,SF-539 CNS,7.16 µM
same,GI50,SK-MEL-28 melanoma,22.4 µM
same,TGI,SK-MEL-28 melanoma,> 100 µM
same,GI50,SK-OV-3 ovarian,65.7 µM
same,TGI,SK-OV-3 ovarian,> 100 µM
same,GI50,SN12C renal,4.88 µM
same,TGI,SN12C renal,79.7 µM
same,GI50,SNB-19 CNS,66 µM
same,TGI,SNB-19 CNS,> 100 µM
same,GI50,SR leukemia,0.356 µM
same,TGI,SR leukemia,0.539 µM
same,GI50,SW-620 colon,46.7 µM
same,TGI,SW-620 colon,> 100 µM
same,GI50,T-47D breast,2.57 µM
same,TGI,T-47D breast,16.1 µM
same,GI50,TK-10 renal,> 100 µM
same,TGI,TK-10 renal,> 100 µM
same,GI50,U251 glioblastoma,19.1 µM
same,TGI,U251 glioblastoma,> 100 µM
same,GI50,UACC-257 melanoma,26.7 µM
same,TGI,UACC-257 melanoma,92.2 µM
same,GI50,UO-31 renal,32.8 µM
same,TGI,UO-31 renal,> 100 µM
COc1ccc(/C=C\c2cc(OC)c(OC)c(OC)c2)cc1NC(=O)[C@@H](N)CO,GI50,786-0 renal,< 0.01 µM
same,TGI,786-0 renal,0.0582 µM
same,GI50,A549 NSCLC,< 0.01 µM
same,TGI,A549 NSCLC,> 100 µM
same,GI50,ACHN renal,< 0.01 µM
same,TGI,ACHN renal,52.2 µM
same,GI50,BT-549 breast,< 0.01 µM
same,TGI,BT-549 breast,0.0252 µM
same,GI50,CAKI-1 renal,< 0.01 µM
same,TGI,CAKI-1 renal,> 100 µM
same,GI50,CCRF-CEM leukemia,< 0.01 µM
same,TGI,CCRF-CEM leukemia,< 0.01 µM
same,GI50,COLO 205 colon,< 0.01 µM
same,TGI,COLO 205 colon,< 0.01 µM
same,GI50,DU-145 prostate,< 0.01 µM
same,TGI,DU-145 prostate,0.0701 µM
same,GI50,EKVX NSCLC,< 0.01 µM
same,TGI,EKVX NSCLC,> 100 µM
same,GI50,HCC-2998 colon,< 0.01 µM
same,TGI,HCC-2998 colon,0.0297 µM
same,GI50,HCT-116 colon,< 0.01 µM
same,TGI,HCT-116 colon,0.103 µM
same,GI50,HCT-15 colon,< 0.01 µM
same,TGI,HCT-15 colon,0.0922 µM
same,GI50,HL-60(TB) leukemia,< 0.01 µM
same,TGI,HL-60(TB) leukemia,< 0.01 µM
same,GI50,HOP-62 NSCLC,< 0.01 µM
same,TGI,HOP-62 NSCLC,0.196 µM
same,GI50,HS 578T breast,< 0.01 µM
same,TGI,HS 578T breast,< 0.01 µM
same,GI50,IGROV1 ovarian,< 0.01 µM
same,TGI,IGROV1 ovarian,35.9 µM
same,GI50,K-562 leukemia,< 0.01 µM
same,TGI,K-562 leukemia,0.0123 µM
same,GI50,LOX IMVI melanoma,0.0122 µM
same,TGI,LOX IMVI melanoma,0.0803 µM
same,GI50,MALME-3M melanoma,< 0.01 µM
same,TGI,MALME-3M melanoma,> 100 µM
same,GI50,MCF7 breast,0.0244 µM
same,TGI,MCF7 breast,12.7 µM
same,GI50,MDA-MB-231 breast,< 0.01 µM
same,TGI,MDA-MB-231 breast,> 100 µM
same,GI50,MDA-MB-435 melanoma,< 0.01 µM
same,TGI,MDA-MB-435 melanoma,< 0.01 µM
same,GI50,MDA-MB-468 breast,0.0133 µM
same,TGI,MDA-MB-468 breast,0.0297 µM
same,GI50,MOLT-4 leukemia,< 0.01 µM
same,TGI,MOLT-4 leukemia,< 0.01 µM
same,GI50,NCI-H226 lung,< 0.01 µM
same,TGI,NCI-H226 lung,0.0253 µM
same,GI50,NCI-H23 lung,< 0.01 µM
same,TGI,NCI-H23 lung,0.0163 µM
same,GI50,NCI-H322M lung,< 0.01 µM
same,TGI,NCI-H322M lung,> 100 µM
same,GI50,NCI-H460 NSCLC,0.0173 µM
same,TGI,NCI-H460 NSCLC,0.036 µM
same,GI50,NCI-H522 lung,< 0.01 µM
same,TGI,NCI-H522 lung,< 0.01 µM
same,GI50,NCI/ADR-RES ovarian,< 0.01 µM
same,TGI,NCI/ADR-RES ovarian,< 0.01 µM
same,GI50,OVCAR-3 ovarian,< 0.01 µM
same,TGI,OVCAR-3 ovarian,0.0207 µM
same,GI50,OVCAR-4 ovarian,0.0137 µM
same,TGI,OVCAR-4 ovarian,> 100 µM
same,GI50,OVCAR-8 ovarian,0.0104 µM
same,TGI,OVCAR-8 ovarian,0.0359 µM
same,GI50,PC-3 prostate,< 0.01 µM
same,TGI,PC-3 prostate,> 100 µM
same,GI50,RPMI-8226 leukemia,< 0.01 µM
same,TGI,RPMI-8226 leukemia,< 0.01 µM
same,GI50,RXF 393 renal,< 0.01 µM
same,TGI,RXF 393 renal,< 0.01 µM
same,GI50,SF-268 CNS,< 0.01 µM
same,TGI,SF-268 CNS,0.0785 µM
same,GI50,SF-295 CNS,< 0.01 µM
same,TGI,SF-295 CNS,< 0.01 µM
same,GI50,SF-539 CNS,< 0.01 µM
same,TGI,SF-539 CNS,0.0277 µM
same,GI50,SK-MEL-28 melanoma,< 0.01 µM
same,TGI,SK-MEL-28 melanoma,> 100 µM
same,GI50,SK-MEL-5 melanoma,< 0.01 µM
same,TGI,SK-MEL-5 melanoma,< 0.01 µM
same,GI50,SK-OV-3 ovarian,< 0.01 µM
same,TGI,SK-OV-3 ovarian,12 µM
same,GI50,SN12C renal,< 0.01 µM
same,TGI,SN12C renal,11.9 µM
same,GI50,SR leukemia,< 0.01 µM
same,TGI,SR leukemia,< 0.01 µM
same,GI50,SW-620 colon,< 0.01 µM
same,TGI,SW-620 colon,> 100 µM
same,GI50,T-47D breast,< 0.01 µM
same,TGI,T-47D breast,68.6 µM
same,GI50,TK-10 renal,< 0.01 µM
same,TGI,TK-10 renal,> 100 µM
same,GI50,U251 glioblastoma,< 0.01 µM
same,TGI,U251 glioblastoma,17.9 µM
same,GI50,UACC-257 melanoma,< 0.01 µM
same,TGI,UACC-257 melanoma,> 100 µM
same,GI50,UACC-62 melanoma,< 0.01 µM
same,TGI,UACC-62 melanoma,> 100 µM
same,GI50,UO-31 renal,< 0.01 µM
same,TGI,UO-31 renal,> 100 µM
